Results from patent US20230183750A1, “HDR ENHANCERS” (OXFORD GENETICS LIMITED, priority 2020, published 2023).

Key:
[1] = test system: HEK293 reporter cell line; test: CRISPR/Cas9-based HDR assay (wtCas9 RNP, ssOligo donor, EGFP positive cells by FACS); type: cell-based, human; conditions: for HDR efficiency in the initial screen with wtCas9: fold change compared to Cas9 alone, ≥20% increase (fold change ≥1.2) = positive influencer; for HDR efficiency, single small molecule (FIG. 4): Example 4, first set of experiments, compared to no compound; for optimal concentration selected for further experiments: from the HDR dose dependency experiment; for concentration with the highest HDR efficiency: tested at 5, 10, 20 μM; for dose dependency of HDR efficiency (FIG. 3): three concentrations (low, medium, high) per inhibitor
Method: More specifically, an HDR assay using a HEK reporter cell line containing truncated EGFP may be used. These cells may be transfected with a transfection complex containing the CRISPR endonuclease and a donor sequence. Cas9 RNPs may be prepared by following the manufacturers' guidelines. The transfection complex may be prepared by adding Cas9 RNP or Cas9 nickase RNP, along with ssOligo donor and lipofectamine 2000 in Optimem. Reagents should be mixed well and incubated for 20 mins. After 20 mins, 50 μl of transfection complex (at an optimal concentration—see the Examples herein) may be transferred in a 96 well plate and 50 μl HEK293 reporter cell line suspension (9×10^5 cells/ml) added followed by 50 μl of cell culture medium containing appropriate concentration(s) of inhibitor(s). Cells may be incubated at 37° C. in a CO2 incubator for 24 hours and then inhibitor-containing media should be replaced with fresh media without inhibitor. Cells are then further incubated for 48 hours. After 48 hours, cells may be trypsinized and resuspended in PBS containing 10% FBS. Samples may be run on FACS and the percentage of EGFP in the population measured. Presence of EGFP directly correlates with HDR efficiency.
To investigate whether a knock-in truncated in HEK293 reporter cell line could be corrected by homology dependent repair, a CRISPR/Cas9-based HDR assay was used. We used ssODN as a donor template to correct the EGFP sequence and to restore functionality as ssODNs are known to be more efficient compared to the double-stranded donor for HDR based DNA repair. Briefly, cells were transfected with a wtCas9 ribonucleoprotein complex along with an oligo donor for restoring EGFP functionality. Cells were analysed by FACS 72 hours post-transfection (FIGS. 2A and 2B).
To identify the small molecules which would increases the HDR efficiency, we carried out experiments using the engineered HEK293 reporter cell line, ss-donor and wtCas9 in the presence of the inhibitors identified in Example 2. Briefly, in vitro reconstituted wtCas9 RNP with gRNA-X1 was transfected into the cells along with ssOligo donor (50 nM) in presence of the inhibitors. Inhibitor containing media was replaced with fresh media after 24 hours and cells were further incubated for 48 hours. After 48 hours cells were trypsinized and resuspended in 10% FBS containing PBS and analysed by FACS.
To understand whether increase in HDR is related to dose response, we carried out the HDR assay using three different concentrations of selected inhibitors as shown in the table below.
To investigate whether HDR efficiency would increase further by using the top hit small molecule combinations, we performed experiments using small molecule combinations for wtCas9. These combinations were selected using Design of Experiment (DoE) software. These combination experiments were carried out in 2 sets: the first set was performed in the absence of NU7441 (a known HDR enhancer); and the second set was performed in the presence of NU7441. […] In the second set of experiments, in the presence of NU7441, further increases (˜2fold) in HDR efficiency were observed compared to no NU7441 (FIG. 4). […]

HEK reporter cell line = test: cell-viability assay using alamar blue reagent; type: cell-based, human; conditions: 72 hours
Method: To investigate the effect of this library on HDR efficiency and to identify novel molecules which would increase the HDR mediated gene editing efficiency, first we carried out a cell-viability assay using the HEK reporter cell line and alamar blue reagent. The experiment was performed to rule out any toxicity associated with the small molecule library. Briefly, 3 different concentration of inhibitors (0.1 μM, 1 μM and 10 μM) were added in the cells in a 96 well plate format and plates were incubated for 72 hours. After 72 hours, the media were replaced with alamar blue containing media and the plates were further incubated for 3 hours and then read on a Fluorstar omega plate reader. The table gives the results obtained with the subsequently-selected inhibitors, together with a range of other potential inhibitors.

Compound	HDR efficiency in the initial screen with wtCas9 [1]	% survival (HEK reporter cell line; 0.1 μM inhibitor) [%]	% survival (HEK reporter cell line; 1 μM inhibitor) [%]	% survival (HEK reporter cell line; 10 μM inhibitor) [%]	HDR efficiency, single small molecule (FIG. 4) ([1]; wtCas9)	optimal concentration selected for further experiments ([1]; wtCas9) [µM]	concentration with the highest HDR efficiency ([1]; wtCas9) [µM]	dose dependency of HDR efficiency (FIG. 3) ([1]; wtCas9)	further increase in HDR efficiency in the presence of NU7441 compared to no NU7441 (FIG. 4) ([1]; Example 4, second set of experiments, wtCas9) [fold]	HDR efficiency at high concentration (FIG. 3) ([1]; concentration of 2 μM, wtCas9)	HDR efficiency at high concentration (FIG. 3) ([1]; concentration of 0.2 μM, wtCas9)
O=c1cc(N2CCOCC2)oc2c1ccc1ccccc12 [NU7026]	increase the HDR efficiency	100.08 ± 4.01	100.14 ± 4.13	83.17 ± 1.44							
O=C([C@H](Cc1cccc(C(F)(F)F)c1)NS(=O)(=O)c1cc(F)c2c(c1)CCNC2)N1CCCC1 [S-PFI-2]	increase the HDR efficiency	99.98 ± 3.25	115.11 ± 2.47	94.25 ± 8.54	increase in HDR efficiency	20	20	dose-dependent increases in HDR efficiency			
O=c1cc(N2CCOCC2)oc2c(-c3cccc4c3sc3ccccc34)cccc12 [NU7441]	increase the HDR efficiency	103.58 ± 4.44	88.88 ± 3.55	22.95 ± 0.98	increase in HDR efficiency	1		highest HDR efficiency	~2	moderate increases	
O=C1NC(=O)/C(=C/c2cccc(C(F)(F)F)c2)S1 [SMI-4a]	increase the HDR efficiency	105.2 ± 0.07	103.18 ± 5.38	99.85 ± 1.22	increase in HDR efficiency	20	20	dose-dependent increases in HDR efficiency			
Cc1cc(CN2CCN(c3c(Br)cnc4nc(-c5ccc(N6CCN(C)CC6)cc5)[nH]c34)CC2)no1 [CCT137690]		105.48 ± 3.94	63.37 ± 2.12	−0.08 ± 0.1							
O=C(Nc1c[nH]nc1-c1nc2cc(CN3CCOCC3)ccc2[nH]1)NC1CC1 [AT9283]	increase the HDR efficiency	81.49 ± 3.59	69.69 ± 1.2	7.1 ± 0.06	increase in HDR efficiency	0.05					moderated decreases in HDR efficiency
CCS(=O)(=O)c1cccc(-c2cc(C(=O)NC3CCN(C)CC3)c(C)c3[nH]c4ncc(C)cc4c23)c1 [TAK-901]		88.9 ± 1.18	36.24 ± 0.88	5.65 ± 0.08							
